Experimental data as given in PubChem BioAssay AID1963850 (Molecular Pharmacology Branch, DTP, NCI, 2024).

System: 192522-019-R-J2-PDC complex tumor spheroid viability
Assay: Anticancer human tumor 192522-019-R-J2-PDC patient-derived colon adenocarcinoma cell line growth inhibition [POLQ]
Conditions: for IC50: curve of first compound; for viability, T/C: stronger effect = lower value
Summary of the method: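 PDC + HUVEC + MSC complex spheroids; POLQ inhibitors ± partner drugs; top conc. at/near clinical Cmax, else 10 microM (SN-38 1 microM), half-log dilutions; 37 degrees C, 5% CO2.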

[1] = second compound 0.0316 µM, first compound 0.0316 µM
[2] = second compound 0.0316 µM, first compound 0.1 µM
[3] = second compound 0.0316 µM, first compound 0.316 µM
[4] = second compound 0.0316 µM, first compound 1 µM
[5] = second compound 0.0316 µM, first compound 3.16 µM
[6] = second compound 0.0316 µM, first compound 10 µM
[7] = second compound 0.1 µM, first compound 0.0316 µM
[8] = second compound 0.1 µM, first compound 0.1 µM
[9] = second compound 0.1 µM, first compound 0.316 µM
[10] = second compound 0.1 µM, first compound 1 µM
[11] = second compound 0.1 µM, first compound 3.16 µM
[12] = second compound 0.1 µM, first compound 10 µM
[13] = second compound 0.316 µM, first compound 0.0316 µM
[14] = second compound 0.316 µM, first compound 0.1 µM
[15] = second compound 0.316 µM, first compound 0.316 µM
[16] = second compound 0.316 µM, first compound 1 µM
[17] = second compound 0.316 µM, first compound 3.16 µM
[18] = second compound 0.316 µM, first compound 10 µM
[19] = second compound 1 µM, first compound 0.0316 µM
[20] = second compound 1 µM, first compound 0.1 µM
[21] = second compound 1 µM, first compound 0.316 µM
[22] = second compound 1 µM, first compound 1 µM
[23] = second compound 1 µM, first compound 3.16 µM
[24] = second compound 1 µM, first compound 10 µM
[25] = second compound 3.16 µM, first compound 0.0316 µM
[26] = second compound 3.16 µM, first compound 0.1 µM
[27] = second compound 3.16 µM, first compound 0.316 µM
[28] = second compound 3.16 µM, first compound 1 µM
[29] = second compound 3.16 µM, first compound 3.16 µM
[30] = second compound 3.16 µM, first compound 10 µM
[31] = second compound 10 µM, first compound 0.0316 µM
[32] = second compound 10 µM, first compound 0.1 µM
[33] = second compound 10 µM, first compound 0.316 µM
[34] = second compound 10 µM, first compound 1 µM
[35] = second compound 10 µM, first compound 3.16 µM
[36] = second compound 10 µM, first compound 10 µM
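Further: spheroids exposed to drugs for seven days before reading.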
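Wherever viability, T/C is given: 100% = DMSO vehicle control viability in luminescence.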

Compound CCc1cc2c(N3CCc4c(cc(Cn5ccnc5)cc4-c4cn(C)nc4C(F)(F)F)C3=O)ccnc2c(OC)n1 + Nc1ccc(C#CCN(C(=O)Cc2ncc(C(F)(F)F)cc2C(F)(F)F)c2ccc(F)cc2)nn1 has an IC50 (second compound 0.0316 µM) of over 10 µM, an IC50 (second compound 0.1 µM) of over 10 µM and an IC50 (second compound 0.316 µM) of over 10 µM. For the same compound, the IC50 (second compound 1 µM) was over 10 µM, the IC50 (second compound 3.16 µM) was over 10 µM and the IC50 (second compound 10 µM) was over 10 µM. The viability, T/C [1] was 109%, the viability, T/C [2] was 94.7% and the viability, T/C [3] was 91.9%. The viability, T/C [4] was 71.8%, the viability, T/C [5] was 75.5% and the viability, T/C [6] was 72.2%. For the same compound, the viability, T/C [7] was 96.1%, the viability, T/C [8] was 94.9% and the viability, T/C [9] was 94%. For the same compound, the viability, T/C [10] was 80.9%, the viability, T/C [11] was 74.6% and the viability, T/C [12] was 70.6%. The viability, T/C [13] was 103%, the viability, T/C [14] was 99% and the viability, T/C [15] was 88%. The viability, T/C [16] was 80.6%, the viability, T/C [17] was 76.2% and the viability, T/C [18] was 77.1%. For the same compound, the viability, T/C [19] was 99.7%, the viability, T/C [20] was 99.4% and the viability, T/C [21] was 94.4%. It also gave a viability, T/C [22] of 88.3%, a viability, T/C [23] of 87.6% and a viability, T/C [24] of 74.5%. For the same compound, the viability, T/C [25] was 108%, the viability, T/C [26] was 91.6% and the viability, T/C [27] was 97.5%. The viability, T/C [28] was 81%, the viability, T/C [29] was 90.6% and the viability, T/C [30] was 75.8%. It also gave a viability, T/C [31] of 106%, a viability, T/C [32] of 97.9% and a viability, T/C [33] of 97.8%. The viability, T/C [34] was 86%, the viability, T/C [35] was 92.7% and the viability, T/C [36] was 79.8%.
For O=c1[nH]cc(F)c(=O)[nH]1 + Nc1ccc(C#CCN(C(=O)Cc2ncc(C(F)(F)F)cc2C(F)(F)F)c2ccc(F)cc2)nn1, the IC50 (second compound 0.0316 µM) was over 10 µM, the IC50 (second compound 0.1 µM) was over 10 µM and the IC50 (second compound 0.316 µM) was over 10 µM. The IC50 (second compound 1 µM) was over 10 µM, the IC50 (second compound 3.16 µM) was over 10 µM and the IC50 (second compound 10 µM) was over 10 µM. For the same compound, the viability, T/C [1] was 99.2%, the viability, T/C [2] was 98.4% and the viability, T/C [3] was 92.5%. For the same compound, the viability, T/C [4] was 90.4%, the viability, T/C [5] was 96.4% and the viability, T/C [6] was 90.3%. The viability, T/C [7] was 104%, the viability, T/C [8] was 101% and the viability, T/C [9] was 95%. It also gave a viability, T/C [10] of 95.9%, a viability, T/C [11] of 91.2% and a viability, T/C [12] of 85.6%. For the same compound, the viability, T/C [13] was 104%, the viability, T/C [14] was 93.5% and the viability, T/C [15] was 96.4%. It also gave a viability, T/C [16] of 85.3%, a viability, T/C [17] of 88.2% and a viability, T/C [18] of 96.4%. The viability, T/C [19] was 104%, the viability, T/C [20] was 98.1% and the viability, T/C [21] was 98.5%. For the same compound, the viability, T/C [22] was 92.2%, the viability, T/C [23] was 96% and the viability, T/C [24] was 89.2%. The viability, T/C [25] was 102%, the viability, T/C [26] was 98.9% and the viability, T/C [27] was 92.8%. For the same compound, the viability, T/C [28] was 96.6%, the viability, T/C [29] was 95.8% and the viability, T/C [30] was 90.1%. For the same compound, the viability, T/C [31] was 116%, the viability, T/C [32] was 95.1% and the viability, T/C [33] was 91.1%. It also gave a viability, T/C [34] of 85.9%, a viability, T/C [35] of 93.5% and a viability, T/C [36] of 90.5%.
CC(C)n1c(=O)n(C)c2cnc3cc(F)c(-c4ccc(OCCCN5CCCCC5)nc4)cc3c21 + COC1C(OC(N)=O)C(O)C(Oc2ccc3c(O)c(NC(=O)c4ccc(O)c(CC=C(C)C)c4)c(=O)oc3c2C)OC1(C)C showed an IC50 (second compound 0.0316 µM) of over 10 µM, an IC50 (second compound 0.1 µM) of over 10 µM and an IC50 (second compound 0.316 µM) of over 10 µM. For the same compound, the IC50 (second compound 1 µM) was over 10 µM, the IC50 (second compound 3.16 µM) was over 10 µM and the IC50 (second compound 10 µM) was over 10 µM. For the same compound, the viability, T/C [1] was 107%, the viability, T/C [2] was 93.2% and the viability, T/C [3] was 115%. It also gave a viability, T/C [4] of 112%, a viability, T/C [5] of 112% and a viability, T/C [6] of 93.9%. The viability, T/C [7] was 97.5%, the viability, T/C [8] was 100% and the viability, T/C [9] was 108%. The viability, T/C [10] was 108%, the viability, T/C [11] was 104% and the viability, T/C [12] was 95.2%. For the same compound, the viability, T/C [13] was 97.8%, the viability, T/C [14] was 95.5% and the viability, T/C [15] was 117%. The viability, T/C [16] was 115%, the viability, T/C [17] was 120% and the viability, T/C [18] was 106%. For the same compound, the viability, T/C [19] was 96.8%, the viability, T/C [20] was 102% and the viability, T/C [21] was 104%. For the same compound, the viability, T/C [22] was 110%, the viability, T/C [23] was 94.9% and the viability, T/C [24] was 104%. For the same compound, the viability, T/C [25] was 98.1%, the viability, T/C [26] was 107% and the viability, T/C [27] was 114%. The viability, T/C [28] was 108%, the viability, T/C [29] was 122% and the viability, T/C [30] was 102%. For the same compound, the viability, T/C [31] was 118%, the viability, T/C [32] was 112% and the viability, T/C [33] was 114%. The viability, T/C [34] was 120%, the viability, T/C [35] was 110% and the viability, T/C [36] was 107%.
For COc1cc(C2c3cc4c(cc3C(OC3OC5COC(C)OC5C(O)C3O)C3COC(=O)C23)OCO4)cc(OC)c1O (stereo not given) + Cc1cccc(N(C)C(=O)C2C(O)CCN2c2nc(C)cc(C(F)(F)F)c2C#N)c1, the IC50 (second compound 0.0316 µM) was over 10 µM, the IC50 (second compound 0.1 µM) was over 10 µM and the IC50 (second compound 0.316 µM) was over 10 µM. The IC50 (second compound 1 µM) was over 10 µM, the IC50 (second compound 3.16 µM) was over 10 µM and the IC50 (second compound 10 µM) was over 10 µM. For the same compound, the viability, T/C [1] was 96.8%, the viability, T/C [2] was 91.4% and the viability, T/C [3] was 103%. The viability, T/C [4] was 86.1%, the viability, T/C [5] was 64.7% and the viability, T/C [6] was 68.5%. It also gave a viability, T/C [7] of 103%, a viability, T/C [8] of 98.8% and a viability, T/C [9] of 97.1%. The viability, T/C [10] was 90.1%, the viability, T/C [11] was 58.6% and the viability, T/C [12] was 72.1%. For the same compound, the viability, T/C [13] was 107%, the viability, T/C [14] was 108% and the viability, T/C [15] was 96.4%. The viability, T/C [16] was 93.3%, the viability, T/C [17] was 65.8% and the viability, T/C [18] was 68.3%. The viability, T/C [19] was 108%, the viability, T/C [20] was 97.6% and the viability, T/C [21] was 98.9%. It also gave a viability, T/C [22] of 95.7%, a viability, T/C [23] of 70.5% and a viability, T/C [24] of 69.3%. The viability, T/C [25] was 113%, the viability, T/C [26] was 105% and the viability, T/C [27] was 102%. The viability, T/C [28] was 88.5%, the viability, T/C [29] was 79.9% and the viability, T/C [30] was 63.1%. The viability, T/C [31] was 117%, the viability, T/C [32] was 104% and the viability, T/C [33] was 105%. For the same compound, the viability, T/C [34] was 91.6%, the viability, T/C [35] was 80% and the viability, T/C [36] was 65.2%.
With COc1cccc2c1C(=O)c1c(O)c3c(c(O)c1C2=O)CC(O)(C(=O)CO)CC3OC1CC(N)C(O)C(C)O1 (stereo not given) + Nc1ccc(C#CCN(C(=O)Cc2ncc(C(F)(F)F)cc2C(F)(F)F)c2ccc(F)cc2)nn1 the IC50 (second compound 0.0316 µM) was over 10 µM, the IC50 (second compound 0.1 µM) was over 10 µM and the IC50 (second compound 0.316 µM) was over 10 µM. It also gave an IC50 (second compound 1 µM) of over 10 µM, an IC50 (second compound 3.16 µM) of over 10 µM and an IC50 (second compound 10 µM) of over 10 µM. The viability, T/C [1] was 100%, the viability, T/C [2] was 85% and the viability, T/C [3] was 79.4%. It also gave a viability, T/C [4] of 75.7%, a viability, T/C [5] of 74% and a viability, T/C [6] of 58.9%. It also gave a viability, T/C [7] of 108%, a viability, T/C [8] of 80.4% and a viability, T/C [9] of 81.6%. It also gave a viability, T/C [10] of 79.9%, a viability, T/C [11] of 68.4% and a viability, T/C [12] of 62.4%. For the same compound, the viability, T/C [13] was 100%, the viability, T/C [14] was 89% and the viability, T/C [15] was 80.1%. The viability, T/C [16] was 81.5%, the viability, T/C [17] was 73.5% and the viability, T/C [18] was 62.7%. It also gave a viability, T/C [19] of 88.6%, a viability, T/C [20] of 81.9% and a viability, T/C [21] of 81.2%. For the same compound, the viability, T/C [22] was 71.2%, the viability, T/C [23] was 67.8% and the viability, T/C [24] was 58%. It also gave a viability, T/C [25] of 96.7%, a viability, T/C [26] of 85% and a viability, T/C [27] of 87.9%. For the same compound, the viability, T/C [28] was 75.4%, the viability, T/C [29] was 69.2% and the viability, T/C [30] was 58.1%. It also gave a viability, T/C [31] of 92.4%, a viability, T/C [32] of 81.2% and a viability, T/C [33] of 94.7%. For the same compound, the viability, T/C [34] was 71.5%, the viability, T/C [35] was 60.4% and the viability, T/C [36] was 49.1%.
